According to ChEMBL document CHEMBL4304835 (ACS Med Chem Lett, 2019):

Key:
[1] = biological target: Transcription initiation factor TFIID subunit 1 (Homo sapiens, UniProt P21675); assay: Displacement of biotinylated probe from human TAF1 bromodomain 2 (1522 to 1656 residues) expressed in Escherichia coli BL21 (DE3) by alphascreen assay
[2] = biological target: Bromodomain-containing protein 4 (Homo sapiens, UniProt O60885); assay: Displacement of Bio-JQ1 from recombinant human His6 tagged BRD4 bromodomain 1 by alphascreen assay

Transcription initiation factor TFIID subunit 1, sequence (P21675 whole entry, the tested form may be a part): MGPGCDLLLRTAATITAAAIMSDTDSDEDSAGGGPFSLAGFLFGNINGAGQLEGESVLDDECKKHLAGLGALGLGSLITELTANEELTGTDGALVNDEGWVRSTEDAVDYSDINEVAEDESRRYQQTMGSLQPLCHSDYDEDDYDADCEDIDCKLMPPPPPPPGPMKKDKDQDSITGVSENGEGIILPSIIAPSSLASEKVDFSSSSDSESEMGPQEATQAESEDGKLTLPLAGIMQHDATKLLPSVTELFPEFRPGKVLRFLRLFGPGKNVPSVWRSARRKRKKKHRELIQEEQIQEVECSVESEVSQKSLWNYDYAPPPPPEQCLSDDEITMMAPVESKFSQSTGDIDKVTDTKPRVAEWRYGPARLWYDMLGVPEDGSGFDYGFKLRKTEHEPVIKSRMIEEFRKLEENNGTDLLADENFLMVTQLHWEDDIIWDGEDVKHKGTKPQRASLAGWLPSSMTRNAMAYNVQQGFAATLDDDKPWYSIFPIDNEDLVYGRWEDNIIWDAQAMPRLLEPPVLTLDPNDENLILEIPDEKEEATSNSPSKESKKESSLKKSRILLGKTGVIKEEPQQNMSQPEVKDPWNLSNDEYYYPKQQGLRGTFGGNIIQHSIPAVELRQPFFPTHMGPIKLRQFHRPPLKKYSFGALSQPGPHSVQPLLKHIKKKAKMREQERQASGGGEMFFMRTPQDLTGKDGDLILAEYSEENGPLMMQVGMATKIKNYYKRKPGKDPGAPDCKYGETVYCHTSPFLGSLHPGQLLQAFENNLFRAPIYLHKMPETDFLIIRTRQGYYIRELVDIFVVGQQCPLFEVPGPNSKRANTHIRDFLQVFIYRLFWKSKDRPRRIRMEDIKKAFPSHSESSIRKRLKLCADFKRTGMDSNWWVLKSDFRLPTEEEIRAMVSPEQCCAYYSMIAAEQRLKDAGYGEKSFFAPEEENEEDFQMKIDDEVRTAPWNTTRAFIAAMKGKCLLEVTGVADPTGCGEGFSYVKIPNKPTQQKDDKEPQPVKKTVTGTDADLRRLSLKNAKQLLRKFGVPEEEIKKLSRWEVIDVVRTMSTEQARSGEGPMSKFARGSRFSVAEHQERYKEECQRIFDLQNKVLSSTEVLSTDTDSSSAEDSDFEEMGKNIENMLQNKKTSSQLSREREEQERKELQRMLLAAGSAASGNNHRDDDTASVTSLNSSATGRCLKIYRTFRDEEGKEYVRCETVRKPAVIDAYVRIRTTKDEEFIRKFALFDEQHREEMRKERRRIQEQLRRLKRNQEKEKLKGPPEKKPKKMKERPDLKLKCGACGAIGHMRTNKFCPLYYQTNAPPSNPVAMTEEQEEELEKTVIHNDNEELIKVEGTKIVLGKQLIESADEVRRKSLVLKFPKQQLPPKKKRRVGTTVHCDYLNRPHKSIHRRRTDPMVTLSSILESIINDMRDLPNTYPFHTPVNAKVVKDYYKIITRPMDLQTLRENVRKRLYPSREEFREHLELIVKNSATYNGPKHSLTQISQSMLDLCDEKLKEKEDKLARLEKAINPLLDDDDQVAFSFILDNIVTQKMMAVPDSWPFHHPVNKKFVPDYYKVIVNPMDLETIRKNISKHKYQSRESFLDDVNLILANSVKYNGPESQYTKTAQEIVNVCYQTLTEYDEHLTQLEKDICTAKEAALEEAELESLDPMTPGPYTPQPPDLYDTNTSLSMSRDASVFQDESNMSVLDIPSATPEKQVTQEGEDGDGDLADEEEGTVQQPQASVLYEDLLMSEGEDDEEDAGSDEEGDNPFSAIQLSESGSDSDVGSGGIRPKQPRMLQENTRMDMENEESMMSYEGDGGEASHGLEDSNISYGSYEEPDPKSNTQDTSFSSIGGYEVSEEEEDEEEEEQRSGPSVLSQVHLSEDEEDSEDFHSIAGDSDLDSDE

Row | IC50 [1] | IC50 [2] | Compound
1 | 150 nM | 280 nM | CC[C@@H]1C(=O)N(C)c2cnc(Nc3ccc(C(=O)NC4CCN(C)CC4)cc3)nc2N1C1CCCC1
2 | > 10000 nM | > 10000 nM | CC[C@@H]1C(=O)Nc2cnc(Nc3ccc(C(=O)NC4CCN(C)CC4)cc3OC)nc2N1C1CCCC1
3 | 16 nM | 37 nM | COc1cc(C(=O)NC2CCN(C)CC2)ccc1Nc1ccc2c(n1)N(C1CCCC1)[C@H](C)C(=O)N2C
4 | 320 nM | 220 nM | CC(C)Oc1cc(C(=O)NC2CCN(C)CC2)ccc1Nc1ncc2c(n1)N(C1CCCC1)[C@H](C)C(=O)N2C
5 | 450 nM | 150 nM | CC[C@@H]1C(=O)N(C)c2ccc(Nc3ccc(C(=O)NC4CCN(C)CC4)cc3OC)nc2N1C1CCCC1
6 | > 10000 nM | 620 nM | CC[C@@H]1C(=O)N(C)c2cnc(Oc3ccc(C(=O)NC4CCN(C)CC4)cc3OC)nc2N1C1CCCC1
7 | > 10000 nM | 100 nM | CC[C@@H]1C(=O)N(C)c2cnc(N(C)c3ccc(C(=O)NC4CCN(C)CC4)cc3OC)nc2N1C1CCCC1
8 | 210 nM | 63 nM | CC[C@@H]1C(=O)N(C)c2cnc(Nc3ccc(C(=O)NC4CCN(C)CC4)cc3OC(C)C)nc2N1C1CCCC1
9 | 410 nM | 690 nM | CC[C@@H]1C(=O)N(CC)c2cnc(Nc3ccc(C(=O)NC4CCN(C)CC4)cc3OC)nc2N1C1CCCC1
10 | 110 nM | 62 nM | CC[C@@H]1C(=O)N(C)c2cnc(Nc3ccc(C(=O)NC4CCN(C)CC4)cc3OC3CCC3)nc2N1C1CCCC1
11 | 100 nM | 33 nM | CC[C@@H]1C(=O)N(C)c2cnc(Nc3ccc(C(=O)NC4CCN(C)CC4)cc3OC3CCCC3)nc2N1C1CCCC1

The next lines start with the compound.

Row | Compound | IC50 [1] | IC50 [2]
12 | C[C@@H]1C(=O)N(C)c2ccc(Nc3ccc(C(=O)NC4CCN(C)CC4)cc3OC3CCCC3)nc2N1C1CCCC1 | 31 nM | 48 nM
13 | COc1cc(C(=O)NC2CCN(C)CC2)ccc1Nc1ccc2c(n1)N1CCCC[C@@H]1C(=O)N2C | 63 nM | 2700 nM
14 | C[C@@H]1C(=O)N(C)c2cnc(Nc3ccc(C(=O)NC4CCN(C)CC4)cc3)nc2N1C1CCCC1 | 87 nM | 68 nM
15 | COc1cc(C(=O)N2CCC(O)CC2)ccc1Nc1ccc2c(n1)N(C1CCCCCC1)[C@H](C)C(=O)N2C | 240 nM | 220 nM
16 | COc1cc(C(=O)N2CCC(O)CC2)ccc1Nc1ccc2c(n1)N1CCCC[C@@H]1C(=O)N2C | 210 nM | 7200 nM
17 | COc1cc(C(=O)N2CCC(O)CC2)ccc1Nc1ccc2c(n1)N(Cc1ccccc1)[C@H](C)C(=O)N2C | 720 nM | 240 nM
18 | CC(C)Oc1cc(C(=O)NC2CCN(C)CC2)ccc1Nc1ccc2c(n1)N(C1CCCC1)[C@H](C)C(=O)N2C | 89 nM | 130 nM
19 | C=CCCN1C(=O)[C@@H](C)N(C2CCCC2)c2nc(Nc3ccc(C(=O)N4CCC(O)CC4)cc3OC)ccc21 | 570 nM | 4400 nM
20 | COc1cc(C(=O)N2CCC(O)CC2)ccc1Nc1ccc2c(c1C)N(C)[C@H](C)C(=O)N2C | 980 nM | > 10000 nM
21 | COc1cc(C(=O)N2CCC(O)CC2)ccc1Nc1ccc2c(n1)N(C1CCOCC1)[C@H](C)C(=O)N2C | 38 nM | 140 nM
22 | C=CCN1C(=O)[C@@H](C)N(C2CCCC2)c2nc(Nc3ccc(C(=O)N4CCC(O)CC4)cc3OC)ccc21 | 1700 nM | 4500 nM
23 | COc1cc(C(=O)N2CCC(O)CC2)ccc1Nc1cc2c(cc1C)N(C)C(=O)[C@@H](C)N2C1CCCC1 | > 10000 nM | 2100 nM
24 | COc1cc(C(=O)N2CCC(O)CC2)ccc1Nc1cc2c(cc1OC)N(C)C(=O)[C@@H](C)N2C1CCCC1 | 750 nM | 7300 nM
25 | COc1cc(C(=O)N2CCC(O)CC2)ccc1Nc1ccc2c(n1)N(C1CCC(C)(C)C1)[C@H](C)C(=O)N2C (mixture of isomers) | 300 nM | 140 nM
26 | COc1cc(C(=O)N2CCC(O)CC2)ccc1Nc1cc2c(cc1F)N(C)C(=O)[C@@H](C)N2C1CCCC1 | 4600 nM | 680 nM
27 | C[C@@H]1C(=O)N(C)c2ccc(Nc3ccc(C(=O)NC4CCN(C)CC4)cc3)nc2N1C1CCCC1 | 340 nM | 190 nM
28 | COc1cc(C(=O)N2CCC(O)CC2)ccc1Nc1ccc2c(n1)N(C1CCCCC1)[C@H](C)C(=O)N2C | 72 nM | 150 nM
29 | C=CCCN1C(=O)[C@@H](C)N(C2CCOCC2)c2nc(Nc3ccc(C(=O)NC4CCN(C)CC4)cc3OC)ccc21 | 82 nM | > 10000 nM
30 | COc1cc(C(=O)N2CCC(O)CC2)ccc1Nc1ccc2c(c1)N(C1CCCC1)[C@H](C)C(=O)N2C | 580 nM | 110 nM
31 | COc1cc(C(=O)N2CCC(O)CC2)ccc1Nc1ccc2c(n1)N(C1CCCC1)[C@H](C)C(=O)N2C | 93 nM | 47 nM
32 | COc1cc(C(=O)NC2CCN(C)CC2)ccc1Nc1ccc2c(n1)N(C1CCOCC1)[C@H](C)C(=O)N2C | < 10 nM | 49 nM
